From PubChem BioAssay AID330 (DTP/NCI, 2004)
Several values for one entry are separate records, joined by “and”; a condition that tells them apart may be missing. Equal values may be shown once. Inconclusive results and toxic doses are left out.

System: P388 leukemia ip, CD2F1 mice, survival T/C
Assay: NCI In Vivo Anticancer Drug Screen. Data for tumor model P388 Leukemia (intraperitoneal) in CD2F1 (CDF1) mice
Conditions: endpoint: median survival time, higher = longer survival
Procedure, shortened: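 Mice carrying the transplanted tumor received test compound or vehicle. Survival was recorded in each group, and the value is the treated-group measurement divided by that of the vehicle-treated control group.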

C=C1CC[C@H]2C(C)=CC[C@H]3C(=C)C(=O)O[C@@H]3[C@@H]12
T/C (dose: 5.0 mg/kg/injection, schedule: Q01DX009 (ip), vehicle: saline with Tween-80): 90 % of control | T/C (dose: 10.0 mg/kg/injection, schedule: Q01DX009 (ip), vehicle: saline with Tween-80): 91 % of control | T/C (dose: 20.0 mg/kg/injection, schedule: Q01DX009 (ip), vehicle: saline with Tween-80): 97 % of control | T/C (dose: 40.0 mg/kg/injection, schedule: Q01DX009 (ip), vehicle: saline with Tween-80): 95 % of control | T/C (dose: 100.0 mg/kg/injection, schedule: Q04DX002 (ip), vehicle: saline with Tween-80): 107 % of control | T/C (dose: 200.0 mg/kg/injection, schedule: Q04DX002 (ip), vehicle: saline with Tween-80): 112 % of control | T/C (dose: 400.0 mg/kg/injection, schedule: Q04DX002 (ip), vehicle: saline with Tween-80): 102 % of control

Nc1c2cc3c(cc2c[n+]2ccc4ccccc4c12)OCO3
T/C (dose: 6.25 mg/kg/injection, schedule: Q04DX003 (ip), vehicle: distilled water + Tween-80): 111 % of control and 113 % of control and 115 % of control | T/C (dose: 12.5 mg/kg/injection, schedule: Q04DX003 (ip), vehicle: distilled water + Tween-80): 113 % of control and 116 % of control and 120 % of control | T/C (dose: 25.0 mg/kg/injection, schedule: Q04DX003 (ip), vehicle: distilled water + Tween-80): 111 % of control (2×) and 123 % of control

Cc1cc(C2(c3cc(C)c(O)c(CN(CC(=O)O)CC(=O)O)c3)OS(=O)(=O)c3ccccc32)cc(CN(CC(=O)O)CC(=O)O)c1O
T/C (dose: 50.0 mg/kg/injection, schedule: Q01DX009 (ip), vehicle: saline): 105 % of control | T/C (dose: 100.0 mg/kg/injection, schedule: Q01DX009 (ip), vehicle: saline): 96 % of control | T/C (dose: 200.0 mg/kg/injection, schedule: Q01DX009 (ip), vehicle: saline): 104 % of control

COc1cc(C/C(=C\c2ccc3c(c2)OCO3)[N+](=O)[O-])ccc1OCc1ccccc1
T/C (dose: 100.0 mg/kg/injection, schedule: Q01DX001 (ip), vehicle: Klucel (hydroxypropylcellulose) (HPC)): 98 % of control | T/C (dose: 200.0 mg/kg/injection, schedule: Q01DX001 (ip), vehicle: Klucel (hydroxypropylcellulose) (HPC)): 96 % of control | T/C (dose: 400.0 mg/kg/injection, schedule: Q01DX001 (ip), vehicle: Klucel (hydroxypropylcellulose) (HPC)): 96 % of control

Cc1cc(Cl)nc2c1ccn2C1OC(CO)C(O)C1O (configuration not stated)
T/C (dose: 32.0 mg/kg/injection, schedule: Q01DX001 (ip), vehicle: saline): 100 % of control | T/C (dose: 64.0 mg/kg/injection, schedule: Q01DX001 (ip), vehicle: saline): 100 % of control | T/C (dose: 128.0 mg/kg/injection, schedule: Q01DX001 (ip), vehicle: saline): 102 % of control

CS(=O)(=O)C(c1nc2n(c1O)C(=N)N=N2)c1nc2n(c1O)C(=N)N=N2 (configuration not stated)
T/C (dose: 60.0 mg/kg/injection, schedule: Q01DX005 (ip), vehicle: saline): 99 % of control | T/C (dose: 120.0 mg/kg/injection, schedule: Q01DX005 (ip), vehicle: saline): 100 % of control | T/C (dose: 240.0 mg/kg/injection, schedule: Q01DX005 (ip), vehicle: saline): 105 % of control

CC(=O)OCC1OC(n2ncc(=O)[nH]c2=O)C(OC(C)=O)C1OC(C)=O (configuration not stated)
T/C (dose: 50.0 mg/kg/injection, schedule: Q01DX009 (ip), vehicle: saline with Tween-80): 122 % of control | T/C (dose: 100.0 mg/kg/injection, schedule: Q01DX009 (ip), vehicle: saline sonified): 118 % of control | T/C (dose: 100.0 mg/kg/injection, schedule: Q01DX009 (ip), vehicle: saline with Tween-80): 122 % of control | T/C (dose: 200.0 mg/kg/injection, schedule: Q01DX009 (ip), vehicle: saline sonified): 122 % of control | T/C (dose: 400.0 mg/kg/injection, schedule: Q01DX009 (ip), vehicle: saline sonified): 118 % of control | T/C (dose: 800.0 mg/kg/injection, schedule: Q01DX009 (ip), vehicle: saline with Tween-80): 100 % of control

CC(C)C(=O)OC1(C(C)c2ccccc2)C(=O)NC(=O)NC1=O (configuration not stated)
T/C (dose: 7.5 mg/kg/injection, schedule: Q01DX005 (ip), vehicle: Klucel (hydroxypropylcellulose) (HPC)): 98 % of control | T/C (dose: 15.0 mg/kg/injection, schedule: Q01DX005 (ip), vehicle: Klucel (hydroxypropylcellulose) (HPC)): 102 % of control

C[CH2][Sn]([CH2]C)([O][P+](=O)C[Si](C)(C)c1ccccc1)[O][P+](=O)C[Si](C)(C)c1ccccc1 (configuration not stated)
T/C (dose: 30.0 mg/kg/injection, schedule: Q01DX005 (ip), vehicle: saline with Tween-80): 119 % of control | T/C (dose: 60.0 mg/kg/injection, schedule: Q01DX005 (ip), vehicle: saline with Tween-80): 153 % of control

CCN([NH-])C(=S)[S-].CCN([NH-])C(=S)[S-].[Ni]
T/C (dose: 6.25 mg/kg/injection, schedule: Q04DX003 (ip), vehicle: Klucel (hydroxypropylcellulose) (HPC)): 99 % of control | T/C (dose: 12.5 mg/kg/injection, schedule: Q04DX003 (ip), vehicle: Klucel (hydroxypropylcellulose) (HPC)): 107 % of control | T/C (dose: 25.0 mg/kg/injection, schedule: Q04DX003 (ip), vehicle: Klucel (hydroxypropylcellulose) (HPC)): 103 % of control

Cc1c(C)n(-c2ccccc2)c2nc(C)n(-c3ccccc3)c(=N)c12
T/C (dose: 50.0 mg/kg/injection, schedule: Q01DX005 (ip), vehicle: Klucel (hydroxypropylcellulose) (HPC)): 101 % of control | T/C (dose: 100.0 mg/kg/injection, schedule: Q01DX005 (ip), vehicle: Klucel (hydroxypropylcellulose) (HPC)): 100 % of control
